pIC50: −log10 of the molar value.
Assays:
Format in all cases: cell-based
STAT3 = biological target: T1, STAT3 (Homo sapiens, UniProt P40763); test: HiBiT assay, STAT3 degradation in STAT3-HiBiT KI HeLa cells; details: 24 h; for DC50: read-out: STAT3 Degradation (HeLa 24 h HiBit) DC50
T1 construct: This cell line is a clone created by using CRISPR-Cas9 to fuse HiBiT to the 3′ end of STAT3 in HeLa cells; host or cells: STAT3-HiBiT KI HeLa cell line (CRISPR-Cas9 knock-in clone)
Description: STAT3 degradation may be determined by HiBiT assay. STAT3-HiBiT KI HeLa cell line, which is a clone created by using CRTISPR-Cas9 to fuse HiBiT to the 3′ end of STAT3 in HeLa cells, may be used for this assay. In a typical procedure, cells seeded at certain amounts of cells (e.g., 20000 cells) per well are incubated with serially diluted compounds for certain period of time (e.g., 24 hours) under certain conditions (e.g., at 37° C. with 5% CO2). At the end of treatment, Nano-Glo HiBiT Lytic Detection reagents is added to the wells and luminescence is acquired on TECAN SPARK plate reader. Untreated cells are used as control. Data points are fit with a four-parameter equation to generate a concentration-response curve. IC50 values are calculated using a nonlinear regression analysis of the mean±SD from triplicate.
STAT3-HiBiT KI HeLa cell line was purchased from Promega. This cell line is a clone created by using CRISPR-Cas9 to fuse HiBiT to the 3′ end of STAT3 in HeLa cells. DMEM medium and FBS were purchased from Gibco/Thermo Fisher Scientific. STAT3 degradation was determined based on quantification of luminescent signal using Nano-Glo HiBiT Lytic Detection System. In a typical procedure, cells seeded at 20000 cells per well in 96-well white plates (Corning) were incubated with serially diluted compounds for 24 hours at 37° C. with 5% CO2. At the end of treatment, Nano-Glo HiBiT Lytic Detection reagents was added to the wells and luminescence was acquired on TECAN SPARK plate reader. Untreated cells were used as control. Data points were fit with a four-parameter equation to generate a concentration-response curve. IC50 values were calculated using a nonlinear regression analysis of the mean±SD from triplicate.

SU-DHL-1 cells = test: CellTiter-Glo 2.0 cell viability assay, SU-DHL-1; details: Homo sapiens, 96 h, 4 days
Description: (§1) For example, cell viability may be determined by CellTiter-Glo 2.0 Cell Viability Assay. In a typical procedure, cells seeded at certain amounts of cells (e.g., 1000 cells) per well are incubated with serially diluted compounds for certain period (e.g., 4 days) under certain conditions (e.g., at 37° C. with 5% CO2). At the end of treatment, CellTiter-Glo 2.0 is added to the wells and luminescence is acquired on TECAN SPARK plate reader. Untreated cells are used as control, Data points are fit with an equation (e.g., a four-parameter equation) to generate a concentration-response curve. IC50 values are calculated using a nonlinear regression analysis of the mean±SD from triplicate.
(§2) SU-DHL-1 and SUP-M2 cell viability was determined by CellTiter-Glo 2.0 Cell Viability Assay (Promega). SU-DHL-1 cell line was purchased from ATCC (Manassas, VA) and SUP-M2 (ACC-509) was purchased from DSMZ (Germany). RPMI 1640 medium and fetal bovine serum (FBS) were purchased from Gibco/Thermo Fisher Scientific. In a typical procedure, cells seeded at 1000 cells per well in 384-well white plates (Corning) were incubated with serially diluted compounds for 4 days at 37° C. with 5% C02. At the end of treatment, CellTiter-Glo 2.0 was added to the wells and luminescence was acquired on TECAN SPARK plate reader. Untreated cells were used as control. Data points were fit with a four-parameter equation to generate a concentration-response curve. IC50 values were calculated using a nonlinear regression analysis of the mean±SD from triplicate.

SUP-M2 cells = test: CellTiter-Glo 2.0 cell viability assay, SUP-M2; details: 4 days
Description: as §1, §2

T1 sequence (P40763 whole entry): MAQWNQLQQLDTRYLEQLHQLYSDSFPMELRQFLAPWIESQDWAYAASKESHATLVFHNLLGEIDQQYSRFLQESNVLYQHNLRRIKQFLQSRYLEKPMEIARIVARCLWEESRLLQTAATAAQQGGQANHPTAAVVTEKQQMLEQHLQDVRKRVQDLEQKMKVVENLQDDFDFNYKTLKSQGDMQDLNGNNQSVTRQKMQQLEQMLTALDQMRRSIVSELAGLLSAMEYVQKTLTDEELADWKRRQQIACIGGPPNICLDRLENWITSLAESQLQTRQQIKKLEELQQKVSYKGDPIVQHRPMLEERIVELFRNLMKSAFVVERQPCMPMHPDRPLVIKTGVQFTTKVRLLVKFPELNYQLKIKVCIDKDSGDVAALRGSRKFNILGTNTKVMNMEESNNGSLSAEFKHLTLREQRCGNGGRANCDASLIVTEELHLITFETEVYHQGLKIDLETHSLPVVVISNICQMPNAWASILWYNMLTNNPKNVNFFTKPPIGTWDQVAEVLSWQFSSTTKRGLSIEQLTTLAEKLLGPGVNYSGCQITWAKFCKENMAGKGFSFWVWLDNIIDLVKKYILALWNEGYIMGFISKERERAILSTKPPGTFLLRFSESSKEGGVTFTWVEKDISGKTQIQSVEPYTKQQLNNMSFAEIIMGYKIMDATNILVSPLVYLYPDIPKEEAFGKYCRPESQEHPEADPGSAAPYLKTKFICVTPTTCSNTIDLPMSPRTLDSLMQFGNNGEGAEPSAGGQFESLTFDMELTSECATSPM

## CCS(=O)(=O)c1ccc(CNC(=O)[C@H](CCC(N)=O)NC(=O)[C@@H]2CC[C@@H]3CCN(C(=O)CCCCCCc4cn([C@H](C(=O)N5C[C@H](O)C[C@H]5C(=O)N[C@@H](C)c5ccc(-c6scnc6C)cc5)C(C)(C)C)nn4)C[C@H](NC(=O)c4cc5cc(C(=O)P(=O)(O)O)ccc5[nH]4)C(=O)N32)cc1 [Compound 15, (2-(((5S,8S,10aR)-8-(((S)-5-amino-1-((4-(ethylsulfonyl)benzyl)amino)-1,5-dioxopentan-2-yl)carbamoyl)-3-(7-(1-((S)-1-((2S,4R)-4-hydroxy-2-(((S)-1-(4-(4-methylthiazol-5-yl)phenyl)ethyl)carbamoyl)pyrrolidin-1-yl)-3,3-dimethyl-1-oxobutan-2-yl)-1H-1,2,3-triazol-4-yl)heptanoyl)-6-oxodecahydropyrrolo[1,2-a][1,5]diazocin-5-yl)carbamoyl)-1H-indole-5-carbonyl)phosphonic acid]
STAT3
  Dmax at 1 µM: > 80%
  DC50: < 0.01 µM
SU-DHL-1 cells
  pIC50: 7.00 to 8.00
SUP-M2 cells; SUP-M2, 96 h
  pIC50: 7.00 to 8.00

## CC(=O)N1CC[C@H]2CC[C@@H](C(=O)N[C@@H](CCC(N)=O)COc3cccc(CCCc4cn([C@H](C(=O)N5C[C@H](O)C[C@H]5C(=O)N[C@@H](CN5CCOCC5)c5ccc(-c6scnc6C)cc5)C(C)(C)C)nn4)c3Cl)N2C(=O)[C@@H](NC(=O)c2cc3cc(C(=O)P(=O)(O)O)ccc3[nH]2)C1 [Compound 5, (2-(((5S,8S,10aR)-3-acetyl-8-(((S)-5-amino-1-(2-chloro-3-(3-(1-((S)-1-((2S,4R)-4-hydroxy-2-(((R)-1-(4-(4-methylthiazol-5-yl)phenyl)-2-morpholinoethyl)carbamoyl)pyrrolidin-1-yl)-3,3-dimethyl-1-oxobutan-2-yl)-1H-1,2,3-triazol-4-yl)propyl)phenoxy)-5-oxopentan-2-yl)carbamoyl)-6-oxodecahydropyrrolo[1,2-a][1,5]diazocin-5-yl)carbamoyl)-1H-indole-5-carbonyl)phosphonic acid]
STAT3
  Dmax at 1 µM: > 80%
  DC50: 0.01 to 0.1 µM
SU-DHL-1 cells
  pIC50: 7.00 to 8.00
SUP-M2 cells; SUP-M2, 96 h
  pIC50: 7.00 to 8.00

## CCS(=O)(=O)c1ccc(CNC(=O)[C@H](CCC(N)=O)NC(=O)[C@@H]2CC[C@@H]3CCN(C(=O)CCCCc4cn([C@H](C(=O)N5C[C@H](O)C[C@H]5C(=O)N[C@@H](CCN5CCOCC5)c5ccc(-c6scnc6C)cc5)C(C)(C)C)nn4)C[C@H](NC(=O)c4cc5cc(C(=O)P(=O)(O)O)ccc5[nH]4)C(=O)N32)cc1 [Compound 17, (2-(((5S,8S,10aR)-8-(((S)-5-amino-1-((4-(ethylsulfonyl)benzyl)amino)-1,5-dioxopentan-2-yl)carbamoyl)-3-(5-(1-((S)-1-((2S,4R)-4-hydroxy-2-(((S)-1-(4-(4-methylthiazol-5-yl)phenyl)-3-morpholinopropyl)carbamoyl)pyrrolidin-1-yl)-3,3-dimethyl-1-oxobutan-2-yl)-1H-1,2,3-triazol-4-yl)pentanoyl)-6-oxodecahydropyrrolo[1,2-a][1,5]diazocin-5-yl)carbamoyl)-1H-indole-5-carbonyl)phosphonic acid]
STAT3
  Dmax at 1 µM: > 80%
  DC50: 0.1 to 1 µM
SU-DHL-1 cells
  pIC50: 6.00 to 7.00
SUP-M2 cells; SUP-M2, 96 h
  pIC50: 6.00 to 7.00

## Cc1ncsc1-c1ccc([C@H](C)NC(=O)[C@@H]2C[C@@H](O)CN2C(=O)[C@@H](NC(=O)CCCCCC(=O)N2CC[C@H]3CC[C@@H](C(=O)N[C@@H](CCC(N)=O)C(=O)NC(c4ccccc4)c4ccccc4)N3C(=O)[C@@H](NC(=O)c3cc4cc(C(=O)P(=O)(O)O)ccc4[nH]3)C2)C(C)(C)C)cc1 [Compound 50, (2-(((5S,8S,10aR)-8-(((S)-5-amino-1-(benzhydrylamino)-1,5-dioxopentan-2-yl)carbamoyl)-3-(7-(((S)-1-((2S,4R)-4-hydroxy-2-(((S)-1-(4-(4-methylthiazol-5-yl)phenyl)ethyl)carbamoyl)pyrrolidin-1-yl)-3,3-dimethyl-1-oxobutan-2-yl)amino)-7-oxoheptanoyl)-6-oxodecahydropyrrolo[1,2-a][1,5]diazocin-5-yl)carbamoyl)-1H-indole-5-carbonyl)phosphonic acid]
STAT3
  DC50: 0.1 to 1 µM
SU-DHL-1 cells
  pIC50: 7.00 to 8.00
SUP-M2 cells; SUP-M2, 96 h
  pIC50: 7.00 to 8.00

## Cc1ncsc1-c1ccc([C@H](C)NC(=O)[C@@H]2C[C@@H](O)CN2C(=O)[C@@H](n2cc(CCCCC(=O)N3CC[C@H]4CC[C@@H](C(=O)N[C@@H](CCC(N)=O)C(=O)NC(c5ccccc5)c5ccccc5)N4C(=O)[C@@H](NC(=O)c4cc5cc(C(=O)P(=O)(O)O)ccc5[nH]4)C3)nn2)C(C)(C)C)cc1 [Compound 13, (2-(((5S,8S,10aR)-8-(((S)-5-amino-1-(benzhydrylamino)-1,5-dioxopentan-2-yl)carbamoyl)-3-(5-(1-((S)-1-((2S,4R)-4-hydroxy-2-(((S)-1-(4-(4-methylthiazol-5-yl)phenyl)ethyl)carbamoyl)pyrrolidin-1-yl)-3,3-dimethyl-1-oxobutan-2-yl)-1H-1,2,3-triazol-4-yl)pentanoyl)-6-oxodecahydropyrrolo[1,2-a][1,5]diazocin-5-yl)carbamoyl)-1H-indole-5-carbonyl)phosphonic acid]
STAT3
  Dmax at 1 µM: > 80%
  DC50: 0.01 to 0.1 µM
SU-DHL-1 cells
  pIC50: 6.00 to 7.00
SUP-M2 cells
  pIC50: 7.00 to 8.00

## Cc1ncsc1-c1ccc([C@H](C)NC(=O)[C@@H]2C[C@@H](O)CN2C(=O)[C@@H](NC(=O)CCC(=O)N2CC[C@H]3CC[C@@H](C(=O)N[C@@H](CCC(N)=O)C(=O)NC(c4ccccc4)c4ccccc4)N3C(=O)[C@@H](NC(=O)c3cc4cc(C(=O)P(=O)(O)O)ccc4[nH]3)C2)C(C)(C)C)cc1 [Compound 47, (2-(((5S,8S,10aR)-8-(((S)-5-amino-1-(benzhydrylamino)-1,5-dioxopentan-2-yl)carbamoyl)-3-(4-(((S)-1-((2S,4R)-4-hydroxy-2-(((S)-1-(4-(4-methylthiazol-5-yl)phenyl)ethyl)carbamoyl)pyrrolidin-1-yl)-3,3-dimethyl-1-oxobutan-2-yl)amino)-4-oxobutanoyl)-6-oxodecahydropyrrolo[1,2-a][1,5]diazocin-5-yl)carbamoyl)-1H-indole-5-carbonyl)phosphonic acid]
STAT3
  DC50: 0.1 to 1 µM
SU-DHL-1 cells
  pIC50: 6.00 to 7.00
SUP-M2 cells; SUP-M2, 96 h
  pIC50: 6.00 to 7.00

## Cc1ncsc1-c1ccc([C@H](C)NC(=O)[C@@H]2C[C@@H](O)CN2C(=O)[C@@H](n2cc(CCCCCC(=O)N3CC[C@H]4CC[C@@H](C(=O)N[C@@H](CCC(N)=O)C(=O)NC(c5ccccc5)c5ccccc5)N4C(=O)[C@@H](NC(=O)c4cc5cc(C(=O)P(=O)(O)O)ccc5[nH]4)C3)nn2)C(C)(C)C)cc1 [Compound 58, (2-(((5S,8S,10aR)-8-(((S)-5-amino-1-(benzhydrylamino)-1,5-dioxopentan-2-yl)carbamoyl)-3-(6-(1-((S)-1-((2S,4R)-4-hydroxy-2-(((S)-1-(4-(4-methylthiazol-5-yl)phenyl)ethyl)carbamoyl)pyrrolidin-1-yl)-3,3-dimethyl-1-oxobutan-2-yl)-1H-1,2,3-triazol-4-yl)hexanoyl)-6-oxodecahydropyrrolo[1,2-a][1,5]diazocin-5-yl)carbamoyl)-1H-indole-5-carbonyl)phosphonic acid]
STAT3
  DC50: > 1 µM
SU-DHL-1 cells
  pIC50: < 6.00
SUP-M2 cells; SUP-M2, 96 h
  pIC50: 6.00 to 7.00

From patent US20260226086A1, “COMPOUNDS AND COMPOSITIONS AS STAT3 DEGRADERS AND USES THEREOF” (REGENTS OF THE UNIVERSITY OF MICHIGAN, priority 2023, published 2026)
